Reference: US12414980B2, “Pharmaceutical composition comprising RUNX3 protein and CDK4 inhibitor or mTOR inhibitor cotreatment for prevention or treatment of cancer” (GeneCraft Inc., priority 2020, dated 2025)

Key:
[1] = system: H460 lung cancer cell line; details: administered simultaneously with adenovirus expressing Runx3 protein, FIG. 8
Experimental: H460 cells (ATCC, Manassas, VA, USA) and H460 stable cells were maintained in RPMI 1640 medium (Gibco BRL) supplemented with 10% fetal bovine serum (Gibco BRL) and 1% penicillin/streptomycin (Invitrogen). All the cell lines were cultured in a 37° C., 5% CO2 incubator.
(§1) Cells were harvested and processed using FITC-Annexin V Apoptosis Detection Kit I (BD Biosciences, San Jose, CA, USA) and propidium iodide DNA staining protocol. Apoptosis and cell cycle were analyzed by flow cytometry on a BD FACS caliber machine (BD Biosciences). All data were analyzed using FlowJo software (https://www.flowjo.com).
Particularly, each cell line prepared in Experimental Methods 1 and 4 was harvested and processed using FITC-Annexin V Apoptosis Detection Kit I (BD Biosciences, San Jose, CA, USA) and propidium iodide DNA staining protocol. Apoptosis and cell cycle were analyzed by flow cytometry on a BD FACS caliber machine (BD Biosciences). All data were analyzed using FlowJo software (https://www.flowjo.com).

normal cells = details: cited from earlier work
[2] = system: PANC1 pancreatic cancer cell line; details: administered simultaneously with adenovirus expressing Runx3 protein, FIG. 8
Experimental: as §1

Runx3-BRD2 complex = Runx3-BRD2 complex formation after serum stimulation, immunoprecipitation (IP) and immunoblotting (IB); format: cell-based; details: for time for which the binding of Runx3 and BRD2 was maintained: after serum stimulation
p300-RUNX3 complex = details: treatment with MEK1 inhibitor (1 μM per methods); FIG. 3a
Experimental: Transient transfection was performed in all cell lines using lipofectamine plus reagent and lipofectamine (Invitrogen). Cell lysates were incubated with an appropriate monoclonal or polyclonal antibody (2 μg of antibody/500 μg of lysate sample) at 4° C. for 3 hours, followed by incubation with protein G-Sepharose beads (Amersham Pharmacia Biotech, Piscataway, NJ, USA). For the detection of endogenous proteins at 4° C. for 1 hour, the lysate was incubated with an appropriate monoclonal or polyclonal antibody (1:1000˜1:3000) at 4° C. for 6 to 12 hours, and then protein G-Sepharose beads (Amersham Pharmacia Biotech) were heated at 4° C. for 3 hours. The immune precipitate was digested on an SDS-polyacrylamide gel electrophoresis (SDS-PAGE) gel and transferred to a PVDF membrane (Millipore, Billerica, MA, USA). The membrane was blocked, immunoblotted with an appropriate antibody, treated with ECL solution (Amersham Pharmacia Biotech), and visualized in Amersham™ Imager 600 (GE Healthcare, Chicago, IL, USA).
Before serum starvation, a knockdown assay was performed by transfecting HEK293 cells with 50 nM siRNA using RNAiMAX (Invitrogen, CA, USA). Cells were harvested at the designated time points after serum stimulation. […] HDAC4 siRNA was purchased from Cell Signaling Technology.

ARF = assay: time-dependent expression of ARF after serum stimulation, immunoblotting (IB); format: cell-based; details: suppression of mTOR using rapamycin (100 nM per methods); FIG. 3h
Source text: HDAC4 siRNA was purchased from Cell Signaling Technology.

Compound	cancer apoptotic effect versus adenovirus expressing Runx3 protein alone [1]	toxicity to normal cells (normal cells; concentration of 11 nM)	cancer apoptotic effect versus adenovirus expressing Runx3 protein alone [2]	physical binding between Runx3 and Brd2 8 hours after serum stimulation (Runx3-BRD2 complex; CDK4 inhibitor at 1 nM)	time for which the binding of Runx3 and BRD2 was maintained (Runx3-BRD2 complex; CDK4 inhibitor present at 11 nM, FIG. 5)	binding of p300-RUNX3 (p300-RUNX3 complex)	binding of BRD2-RUNX3 (Runx3-BRD2 complex; treatment with MEK1 inhibitor (1 μM per methods), FIG. 3a)	time to which the expression of ARF was extended (ARF)	cytotoxicity to normal cells (normal cells; concentration of 100 nM)	time for which the binding of Runx3 and BRD2 was maintained (Runx3-BRD2 complex; mTOR inhibitor present at 100 nM, FIG. 6)	maintenance of Rpa-RX3-AC (Runx3-BRD2 complex; suppression of mTOR using rapamycin (100 nM per methods), FIG. 3h)
CC(=O)c1c(C)c2cnc(Nc3ccc(N4CCNCC4)cn3)nc2n(C2CCCC2)c1=O [PD0332991]	significantly increased	non-toxic	significantly increased	not observed	up to 8 hours						
N#CC(=C(/N)Sc1ccccc1N)/C(C#N)=C(\N)Sc1ccccc1N [U0126]						inhibited	inhibited				
CO[C@H]1C[C@@H]2CC[C@@H](C)[C@@](O)(O2)C(=O)C(=O)N2CCCC[C@H]2C(=O)O[C@H]([C@H](C)C[C@@H]2CC[C@@H](O)[C@H](OC)C2)CC(=O)[C@H](C)/C=C(\C)[C@@H](O)[C@@H](OC)C(=O)[C@H](C)C[C@H](C)/C=C/C=C/C=C/1C [rapamycin]	significantly increased		significantly increased					up to 8 hours	non-cytotoxic	up to 8 hours	maintained
